For assay [1], the system named is 3×Tg-AD mice. Briefly: Short-term memory in single alternation T-maze, 3×Tg-AD mice. It counts as in vivo. The note with it: 10 mg/kg in saline 1 hr prior to testing, vs saline controls, p<0.001. How it is done:
In this model, genes that cause Alzheimer's disease have been cloned from living Alzheimer's patients and then directly cloned into the genome of living mice to create Alzheimer mice (3×Tg-AD mice). […] (Oddo, S., et al., Triple-transgenic model of Alzheimer's disease with plaques and tangles: intracellular Abeta and synaptic dysfunction. Neuron, 2003; 39(3):409-21.)
Short-term memory was assessed in a well-accepted memory model (single alternation T-maze). In these studies, animals were administered 10 mg/kg PD2005 in saline 1 hr prior to testing and controls were administered only saline.

Assay [2] has as its system patients with dementia. The following applies: Alzheimer's disease, frontotemporal dementia, vascular dementia; Dolder et al. review; cited from earlier work.
The target in assay [3] is dopamine transporter (Homo sapiens, UniProt Q01959). The note with it: result in words; cited from earlier work.
dopamine transporter, sequence (Q01959 whole entry): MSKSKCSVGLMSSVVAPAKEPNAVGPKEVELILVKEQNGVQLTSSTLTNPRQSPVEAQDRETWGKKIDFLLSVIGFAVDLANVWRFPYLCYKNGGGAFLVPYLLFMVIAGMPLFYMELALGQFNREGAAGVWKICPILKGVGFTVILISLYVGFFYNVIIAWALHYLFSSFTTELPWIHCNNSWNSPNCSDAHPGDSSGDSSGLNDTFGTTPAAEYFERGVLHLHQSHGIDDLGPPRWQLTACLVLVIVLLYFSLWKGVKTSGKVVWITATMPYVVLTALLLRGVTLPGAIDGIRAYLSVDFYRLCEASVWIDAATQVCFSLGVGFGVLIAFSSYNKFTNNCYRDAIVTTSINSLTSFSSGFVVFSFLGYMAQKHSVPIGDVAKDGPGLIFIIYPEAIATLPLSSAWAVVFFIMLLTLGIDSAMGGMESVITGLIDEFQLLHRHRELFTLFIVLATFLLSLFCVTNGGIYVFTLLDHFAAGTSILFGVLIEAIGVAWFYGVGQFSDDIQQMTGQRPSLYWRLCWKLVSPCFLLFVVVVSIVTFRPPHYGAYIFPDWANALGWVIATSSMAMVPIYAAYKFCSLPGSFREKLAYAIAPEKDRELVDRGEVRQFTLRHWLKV

Molecule `C=CCN1C2CCC1CC(OC(c1ccc(F)cc1)c1ccc(F)cc1)C2` (stereo not drawn) [PD2005, N-allyl-4′,4″-difluoro-3α-diphenyl-methoxytropane] returned an improvement in memory in assay [1] (first day of testing) of 140%. This molecule registered a memory improvement in assay [1] (following day of testing) of 113%. Turning to `CC(N)Cc1ccccc1` (centres unmarked) [amphetamine], in assay [2], the “effectiveness in patients with dementia” value is on record as “not effective”. Consider `CN1[C@@H]2CC[C@H]1C[C@@H](OC(c1ccccc1)c1ccccc1)C2` [benztropine], for which, in assay [3], the “affinity for the dopamine transporter” value was “high affinity”. As to `COC(=O)C(c1ccccc1)C1CCCCN1` (centres unmarked) [methylphenidate], the “effectiveness in patients with dementia” value in assay [2] is recorded as “not effective”.
